{"source": "patent EP0448343A2", "about": "“Lipopeptide derivatives” (MERCK & CO. INC., priority 1990, dated 1991)", "key": {"[1]": {"experiment": "Solubility in water", "assay_type": "physicochemical"}, "[2]": {"test_system": "Pneumocystis carinii", "experiment": "Pneumocystis carinii pneumonia in immunosuppressed rats", "assay_type": "in vivo, Sprague-Dawley rats", "settings": "eliminating P. carinii cysts in four days, dexasone-immunosuppressed rats, microscopic analysis of stained lung slides", "procedure": "In a representative study, the effectiveness of Compound A-1a was determined. Sprague-Dawley rats (weighing approximately 250 grams) were immunosuppressed with dexasone in the drinking water (2.0 mg/L) and maintained on a low protein diet for five weeks to induce the development of pneumocystis pneumonia from a latent infection. […] Six rats (weighing approximately 150 grams) were injected twice daily for four days intravenously (I.V.) via the tail vein with Compound A-1a in 0.25 ml of vehicle (distilled water). A vehicle control was also carried out. All animals continued to receive dexasone in the drinking water and low protein diet during the treatment period. At the completion of the treatment, all animals were sacrificed, the lungs were removed and processed, and the extent of disease determined by microscopic analysis of stained slides.\nIn a similar experiment, except that the rats were injected intraperitoneally (I.P.) twice daily for four days, the animals were sacrificed, the lungs removed and processed, and the extent of disease determined by microscopic analysis of stained slides."}}, "note": "Where a name gives a salt, the structure may show the parent alone.", "data": [{"smiles": "CCC(C)CC(C)CCCCCCCCC(=O)NC1CC(O)C(O)NC(=O)C2C(O)CCN2C(=O)C(C(O)CC(N)=O)NC(=O)C(C(O)C(O)c2ccc(OP(=O)(O)O)cc2)NC(=O)C2CC(O)CN2C(=O)C(C(C)O)NC1=O", "note": "(stereo not shown) [Compound A-1a, 1-[4,5-dihydroxy-N2-(10,12-dimethyl-1-oxotetradecyl)-ornithine-4-[3,4-dihydroxy-4′-O-phosphoryl-homotyrosine]-5-[3-hydroxyglutamine]-6-[3-hydroxyproline]-echinocandin B disodium salt]", "values": [{"measurement": "solubility in water", "setting": "[1]", "value": "> 40", "unit": "mg/mL"}, {"measurement": "ED₉₀", "setting": "[2]; injected twice daily for four days intravenously (I.V.) via the tail vein", "value": "approximately 0.6 mg/kg"}]}, {"smiles": "CCC(C)CC(C)CCCCCCCCC(=O)NC1CC(O)CNC(=O)C2C(O)CCN2C(=O)C(C(O)CC(N)=O)NC(=O)C(C(O)C(O)c2ccc(OP(=O)(O)O)cc2)NC(=O)C2CC(O)CN2C(=O)C(C(C)O)NC1=O", "note": "(stereo not shown) [Compound A-2a, 1-[4-hydroxy-N2-(10,12-dimethyl-1-oxotetradecyl)-ornithine]-4-[3-hydroxy-4′-O-phosphoryl-homotyrosine]-5-[3-hydroxyglutamine]-6-[3-hydroxyproline]echinocandin B disodium salt]", "values": [{"measurement": "solubility", "setting": "[1]", "value": "> 85", "unit": "mg/mL"}, {"measurement": "ED₉₀", "setting": "[2]; injected intraperitoneally (I.P.) twice daily for four days", "value": "approximately 0.6 mg/kg"}]}]}
